Source: patent US20250223268A1, “4-Methylsulfonylbenzamide Compound, Preparation Method, Herbicidal Composition And Use” (Jiangsu Flag Chemical Industry Co., Ltd., priority 2022, published 2025)

Columns and labels:
Type in all cases: in vivo
[1] = tested on: Oryza sativa subsp. japonica; test: Greenhouse herbicidal activity and crop safety comparison (Test Example 2); conditions: Rate 150 g/ha
Method in brief: (§1)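 Fresh weight inhibition, banded into grades A to E (E <20%), was rated 14-21 days after foliar spraying of 3-6 leaf plants, or 14-30 days after a soil spray applied 24 h post-sowing.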

[2] = tested on: Oryza sativa subsp. indica; test: as above; conditions: Rate 150 g/ha
Method in brief: as §1

Leptochloa chinensis [3] = test: as above; conditions: Rate 150 g/ha; for inhibition at 150 g/ha: Dinebra chinensis, read-out: Leptochloa chinensis, control efficacy grading (fresh weight inhibition rate)
Method in brief: as §1

Echinochloa crusgalli [4] = test: as above; conditions: Rate 150 g/ha; for inhibition at 150 g/ha: Echinochloa crus-galli, read-out: Echinochloa crusgalli, control efficacy grading (fresh weight inhibition rate)
Method in brief: as §1

Leptochloa chinensis [5] = test: Greenhouse herbicidal activity assay, post-emergence; conditions: Post-emergence test, rate 150 g a.i./hm^2, grade by fresh weight inhibition rate; for pest or weed control at 150 g/ha: Dinebra chinensis, read-out: Control efficacy grade, Leptochloa chinensis
Method in brief: (§2)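 Weeds and crops grown in pots of nutrient soil in a growth chamber to the 3-6 leaf stage, then foliar-sprayed and air-dried. Fresh weight inhibition scored 14-21 days after treatment and graded A (≥80%) through E (<20%).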

Eclipta prostrata = test: as above; conditions: Post-emergence test, rate 150 g a.i./hm^2, grade by fresh weight inhibition rate; for pest or weed control at 150 g/ha: Eclipta prostrata, read-out: Control efficacy grade, Eclipta prostrata
Method in brief: as §2

Echinochloa crusgalli [6] = test: as above; conditions: Post-emergence test, rate 150 g a.i./hm^2, grade by fresh weight inhibition rate; for pest or weed control at 150 g/ha: Echinochloa crus-galli, read-out: Control efficacy grade, Echinochloa crusgalli
Method in brief: as §2

Cyperus iria = test: as above; conditions: Post-emergence test, rate 150 g a.i./hm^2, grade by fresh weight inhibition rate; for pest or weed control at 150 g/ha: Cyperus iria, read-out: Control efficacy grade, Cyperus iria
Method in brief: as §2

Digitaria sanguinalis = test: as above; conditions: Post-emergence test, rate 150 g a.i./hm^2, grade by fresh weight inhibition rate; for pest or weed control at 150 g/ha: Digitaria sanguinalis, read-out: Control efficacy grade, Digitaria sanguinalis
Method in brief: as §2

Row | SMILES | Oryza sativa subsp. japonica, grading of fresh weight inhibition rate (crop safety) [1] | Oryza sativa subsp. indica, grading of fresh weight inhibition rate (crop safety) [2] | Leptochloa chinensis, control efficacy grading (fresh weight inhibition rate) (Leptochloa chinensis [3]) | Echinochloa crusgalli, control efficacy grading (fresh weight inhibition rate) (Echinochloa crusgalli [4]) | Control efficacy grade, Leptochloa chinensis (Leptochloa chinensis [5]) | Control efficacy grade, Eclipta prostrata (Eclipta prostrata) | Control efficacy grade, Echinochloa crusgalli (Echinochloa crusgalli [6]) | Control efficacy grade, Cyperus iria (Cyperus iria) | Control efficacy grade, Digitaria sanguinalis (Digitaria sanguinalis) | inhibition at 150 g/ha (Leptochloa chinensis [3]) | inhibition at 150 g/ha (Echinochloa crusgalli [4]) | pest or weed control at 150 g/ha (Leptochloa chinensis [5]) | pest or weed control at 150 g/ha (Eclipta prostrata) | pest or weed control at 150 g/ha (Echinochloa crusgalli [6]) | pest or weed control at 150 g/ha (Cyperus iria) | pest or weed control at 150 g/ha (Digitaria sanguinalis)
1 | CCc1nnc(NC(=O)c2ccc(S(C)(=O)=O)c(S(=O)(=O)C3CCCC3)c2Cl)o1 [Compound 3-433] | E (Fresh weight inhibition rate<20%) | E (Fresh weight inhibition rate<20%) | A (Fresh weight inhibition rate≥80% to 100%) | A (Fresh weight inhibition rate≥80% to 100%) | A (Fresh weight inhibition rate≥80% to 100%) | A (Fresh weight inhibition rate≥80% to 100%) | A (Fresh weight inhibition rate≥80% to 100%) | A (Fresh weight inhibition rate≥80% to 100%) | A (Fresh weight inhibition rate≥80% to 100%) | – | – | – | – | – | – | –
2 | CCC(C)S(=O)(=O)c1c(S(C)(=O)=O)ccc(C(=O)Nc2nnc(C)o2)c1Cl (racemic) [Compound 3-24] | E (Fresh weight inhibition rate<20%) | E (Fresh weight inhibition rate<20%) | A (Fresh weight inhibition rate≥80% to 100%) | A (Fresh weight inhibition rate≥80% to 100%) | A (Fresh weight inhibition rate≥80% to 100%) | A (Fresh weight inhibition rate≥80% to 100%) | A (Fresh weight inhibition rate≥80% to 100%) | A (Fresh weight inhibition rate≥80% to 100%) | A (Fresh weight inhibition rate≥80% to 100%) | – | – | – | – | – | – | –
3 | CCCS(=O)(=O)c1c(S(C)(=O)=O)ccc(C(=O)Nc2nnc(C3CC3)o2)c1Cl [Compound 3-619] | E (Fresh weight inhibition rate<20%) | E (Fresh weight inhibition rate<20%) | A (Fresh weight inhibition rate≥80% to 100%) | A (Fresh weight inhibition rate≥80% to 100%) | A (Fresh weight inhibition rate≥80% to 100%) | A (Fresh weight inhibition rate≥80% to 100%) | A (Fresh weight inhibition rate≥80% to 100%) | A (Fresh weight inhibition rate≥80% to 100%) | A (Fresh weight inhibition rate≥80% to 100%) | – | – | – | – | – | – | –
4 | Cc1nnc(NC(=O)c2ccc(S(C)(=O)=O)c(S(=O)(=O)CC3CC3)c2Cl)o1 [Compound 3-41] | E (Fresh weight inhibition rate<20%) | E (Fresh weight inhibition rate<20%) | A (Fresh weight inhibition rate≥80% to 100%) | A (Fresh weight inhibition rate≥80% to 100%) | A (Fresh weight inhibition rate≥80% to 100%) | A (Fresh weight inhibition rate≥80% to 100%) | A (Fresh weight inhibition rate≥80% to 100%) | A (Fresh weight inhibition rate≥80% to 100%) | A (Fresh weight inhibition rate≥80% to 100%) | – | – | – | – | – | – | –
5 | CC(C)S(=O)(=O)c1c(S(C)(=O)=O)ccc(C(=O)Nc2nnc(C3CC3)o2)c1Cl [Compound 3-624, 2-chloro-N-(5-cyclopropyl-1,3,4-oxadiazol-2-yl)-3-(isopropylsulfonyl)-4-(methylsulfonyl)benzamide] | E (Fresh weight inhibition rate<20%) | E (Fresh weight inhibition rate<20%) | – | – | – | – | – | – | – | 80 to 100% | 80 to 100% | 80 to 100% | 80 to 100% | 80 to 100% | 80 to 100% | 80 to 100%
6 | CS(=O)(=O)c1ccc(C(=O)Nc2nnco2)c(Cl)c1S(=O)(=O)C1CCCC1 [Compound 3-317] | E (Fresh weight inhibition rate<20%) | E (Fresh weight inhibition rate<20%) | A (Fresh weight inhibition rate≥80% to 100%) | A (Fresh weight inhibition rate≥80% to 100%) | A (Fresh weight inhibition rate≥80% to 100%) | A (Fresh weight inhibition rate≥80% to 100%) | A (Fresh weight inhibition rate≥80% to 100%) | A (Fresh weight inhibition rate≥80% to 100%) | A (Fresh weight inhibition rate≥80% to 100%) | – | – | – | – | – | – | –
7 | Cc1nnc(NC(=O)c2ccc(S(C)(=O)=O)c(S(=O)(=O)C(C)C)c2Cl)o1 [Compound 3-10, 2-chloro-3-(isopropylsulfonyl)-N-(5-methyl-1,3,4-oxadiazol-2-yl)-4-(methylsulfonyl)benzamide] | E (Fresh weight inhibition rate<20%) | E (Fresh weight inhibition rate<20%) | – | – | – | – | – | – | – | 80 to 100% | 80 to 100% | 80 to 100% | 80 to 100% | 80 to 100% | 80 to 100% | 80 to 100%
8 | CC(C)S(=O)(=O)c1c(S(C)(=O)=O)ccc(C(=O)Nc2nnco2)c1Cl [Compound 3-276] | E (Fresh weight inhibition rate<20%) | E (Fresh weight inhibition rate<20%) | A (Fresh weight inhibition rate≥80% to 100%) | A (Fresh weight inhibition rate≥80% to 100%) | A (Fresh weight inhibition rate≥80% to 100%) | A (Fresh weight inhibition rate≥80% to 100%) | A (Fresh weight inhibition rate≥80% to 100%) | A (Fresh weight inhibition rate≥80% to 100%) | A (Fresh weight inhibition rate≥80% to 100%) | – | – | – | – | – | – | –
9 | CCCS(=O)(=O)c1c(S(C)(=O)=O)ccc(C(=O)Nc2nnco2)c1Cl [Compound 3-271, 2-chloro-4-(methylsulfonyl)-N-(1,3,4-oxadiazol-2-yl)-3-(propylsulfonyl)benzamide] | E (Fresh weight inhibition rate<20%) | E (Fresh weight inhibition rate<20%) | – | – | – | – | – | – | – | 80 to 100% | 80 to 100% | 80 to 100% | 80 to 100% | 80 to 100% | 80 to 100% | 80 to 100%
10 | CS(=O)(=O)c1ccc(C(=O)Nc2nnco2)c(Cl)c1S(=O)(=O)CC1CC1 [Compound 3-302] | E (Fresh weight inhibition rate<20%) | E (Fresh weight inhibition rate<20%) | A (Fresh weight inhibition rate≥80% to 100%) | A (Fresh weight inhibition rate≥80% to 100%) | A (Fresh weight inhibition rate≥80% to 100%) | A (Fresh weight inhibition rate≥80% to 100%) | A (Fresh weight inhibition rate≥80% to 100%) | A (Fresh weight inhibition rate≥80% to 100%) | A (Fresh weight inhibition rate≥80% to 100%) | – | – | – | – | – | – | –
11 | CCCS(=O)(=O)c1c(S(C)(=O)=O)ccc(C(=O)Nc2nnc(C)o2)c1Cl [Compound 3-5] | E (Fresh weight inhibition rate<20%) | E (Fresh weight inhibition rate<20%) | A (Fresh weight inhibition rate≥80% to 100%) | A (Fresh weight inhibition rate≥80% to 100%) | A (Fresh weight inhibition rate≥80% to 100%) | A (Fresh weight inhibition rate≥80% to 100%) | A (Fresh weight inhibition rate≥80% to 100%) | A (Fresh weight inhibition rate≥80% to 100%) | A (Fresh weight inhibition rate≥80% to 100%) | – | – | – | – | – | – | –
